# Measured values: US20090149530A1 (priority 2007, published 2009)
# What was measured:
# [1] = tested on: Dengue-2 virus particles; assay type: binding; details: Den-2; Averionol to Istrocyanidin bound
# [2] = tested on: H5N1 virions; assay type: binding, Avian influenza A virus (H5N1); details: Averionol to Istrocyanidin bound
smiles,measurement,setting,value
COc1cc(OC)c2c(=O)c(O)c(-c3ccc(OC)c(OC)c3)oc2c1 [Averionol],Aver:Istro Ratio,[1],3.7
same,Aver:Istro Ratio,[2],14.0
